These results are taken from article PMC5218480 (PLoS ONE, 2017).

For this assay, the system named is MV-4-11 cells. As to the kind of experiment: Gene expression microarray analysis (Affymetrix PrimeView) and GSEA. The class given is cell-based, human. The arrangement: RFU PODN (11730768_x_at) / Fold change /veh PODN (11730768_x_at) / RFU LINC00158 (11744669_a_at) / Fold change /veh LINC00158 (11744669_a_at) / RFU DUSP10 (11751237_a_at) / Fold change /veh DUSP10 (11751237_a_at) / RFU ID3 (11757404_x_at) / Fold change /veh ID3 (11757404_x_at) / RFU PLEKHG5 (11737974_s_at) / Fold change /veh PLEKHG5 (11737974_s_at) / RFU LRRC4B (11730491_at) / Fold change /veh LRRC4B (11730491_at) / RFU GIMAP4 (11747438_a_at) / Fold change /veh GIMAP4 (11747438_a_at) / RFU KRT8 (11758183_x_at) / Fold change /veh KRT8 (11758183_x_at) / RFU CNN1 (11734310_a_at) / Fold change /veh CNN1 (11734310_a_at) / RFU VPS37D (11726825_at) / Fold change /veh VPS37D (11726825_at) / RFU C10orf10 (11716522_x_at) / Fold change /veh C10orf10 (11716522_x_at) / RFU KIR2DL2 /// KIR2DL4 /// KIR2DL5A /// KIR2DL5B /// KIR2DS1 /// KIR2DS2 /// KIR2DS3 /// KIR2DS4 /// KIR3DL3 /// KIR3DL3 /// KIR3DS1 (11738374_at) / Fold change /veh KIR2DL2 /// KIR2DL4 /// KIR2DL5A /// KIR2DL5B /// KIR2DS1 /// KIR2DS2 /// KIR2DS3 /// KIR2DS4 /// KIR3DL3 /// KIR3DL3 /// KIR3DS1 (11738374_at) / RFU C1QL1 (11718748_at) / Fold change /veh C1QL1 (11718748_at) / RFU TMPRSS4 (11747572_a_at) / Fold change /veh TMPRSS4 (11747572_a_at) / RFU HAMP (11756126_x_at) / Fold change /veh HAMP (11756126_x_at) / RFU RNFT2 (11725882_a_at) / Fold change /veh RNFT2 (11725882_a_at) / RFU NR4A2 (11747474_a_at) / Fold change /veh NR4A2 (11747474_a_at) / RFU ABCC12 (11746883_a_at) / Fold change /veh ABCC12 (11746883_a_at) / RFU TMEM136 (11760407_x_at) / Fold change /veh TMEM136 (11760407_x_at) / RFU CLDN22 /// WWC2 (11732394_at) / Fold change /veh CLDN22 /// WWC2 (11732394_at) / RFU HLA-DPB1 (11760878_x_at) / Fold change /veh HLA-DPB1 (11760878_x_at) / RFU SPINT1 (11716480_a_at) / Fold change /veh SPINT1 (11716480_a_at) / RFU GAP43 (11754022_s_at) / Fold change /veh GAP43 (11754022_s_at) / RFU A4GNT (11735810_at) / Fold change /veh A4GNT (11735810_at) / RFU PRB3 (11715151_x_at) / Fold change /veh PRB3 (11715151_x_at) / RFU TUBB4B (11761932_at) / Fold change /veh TUBB4B (11761932_at) / RFU CAPN14 (11732068_a_at) / Fold change /veh CAPN14 (11732068_a_at) / RFU TMCC2 (11721928_a_at) / Fold change /veh TMCC2 (11721928_a_at) / RFU IRGQ (11745062_a_at) / Fold change /veh IRGQ (11745062_a_at) / RFU FAM174B (11720279_a_at) / Fold change /veh FAM174B (11720279_a_at) / RFU TMPRSS4 (11748680_a_at) / Fold change /veh TMPRSS4 (11748680_a_at) / RFU FAM212B (11763350_a_at) / Fold change /veh FAM212B (11763350_a_at) / RFU PLEKHG5 (11743358_a_at) / Fold change /veh PLEKHG5 (11743358_a_at) / RFU ZSCAN30 (11745921_a_at) / Fold change /veh ZSCAN30 (11745921_a_at) / RFU CMKLR1 (11741424_a_at) / Fold change /veh CMKLR1 (11741424_a_at) / RFU LOC101060620 /// MAPK8IP1 (11723275_at) / Fold change /veh LOC101060620 /// MAPK8IP1 (11723275_at) / RFU SPTSSB (11747773_x_at) / Fold change /veh SPTSSB (11747773_x_at) / RFU PRSS12 (11739890_at) / Fold change /veh PRSS12 (11739890_at) / RFU BIN1 (11741810_x_at) / Fold change /veh BIN1 (11741810_x_at) / RFU WNT11 (11732464_a_at) / Fold change /veh WNT11 (11732464_a_at) / RFU C10orf10 (11716521_a_at) / Fold change /veh C10orf10 (11716521_a_at) / RFU C5orf56 (11738089_at) / Fold change /veh C5orf56 (11738089_at) / RFU CYB561 (11721691_x_at) / Fold change /veh CYB561 (11721691_x_at) / RFU ANKRD19P (11752326_a_at) / Fold change /veh ANKRD19P (11752326_a_at) / RFU OR2T12 /// OR2T33 /// OR2T8 (11738714_s_at) / Fold change /veh OR2T12 /// OR2T33 /// OR2T8 (11738714_s_at) / RFU VCAN (11748164_a_at) / Fold change /veh VCAN (11748164_a_at) / RFU JSRP1 (11732532_at) / Fold change /veh JSRP1 (11732532_at) / RFU KRTAP10-11 (11738290_x_at) / Fold change /veh KRTAP10-11 (11738290_x_at) / RFU MYO3A (11730013_a_at) / Fold change /veh MYO3A (11730013_a_at) / RFU EBF3 (11725865_a_at) / Fold change /veh EBF3 (11725865_a_at) / RFU CAMK2N1 (11719241_x_at) / Fold change /veh CAMK2N1 (11719241_x_at) / RFU C5orf56 (11738088_a_at) / Fold change /veh C5orf56 (11738088_a_at) / RFU OLFML3 (11715873_a_at) / Fold change /veh OLFML3 (11715873_a_at) / RFU LOC100653217 /// NTM (11731650_a_at) / Fold change /veh LOC100653217 /// NTM (11731650_a_at) / RFU MAPK11 (11762145_a_at) / Fold change /veh MAPK11 (11762145_a_at) / RFU FIZ1 (11724087_x_at) / Fold change /veh FIZ1 (11724087_x_at) / RFU OASL (11726364_x_at) / Fold change /veh OASL (11726364_x_at) / RFU SOX15 (11748057_x_at) / Fold change /veh SOX15 (11748057_x_at) / RFU CD79A (11719716_a_at) / Fold change /veh CD79A (11719716_a_at) / RFU HIST1H1D (11736915_at) / Fold change /veh HIST1H1D (11736915_at) / RFU CASKIN2 (11723855_a_at) / Fold change /veh CASKIN2 (11723855_a_at) / RFU LOC730098 (11760151_x_at) / Fold change /veh LOC730098 (11760151_x_at) / RFU OR4N2 (11742367_at) / Fold change /veh OR4N2 (11742367_at) / RFU PRRT2 (11749266_a_at) / Fold change /veh PRRT2 (11749266_a_at) / RFU SNX32 (11753110_a_at) / Fold change /veh SNX32 (11753110_a_at) / RFU CDHR5 (11726645_a_at) / Fold change /veh CDHR5 (11726645_a_at) / RFU RCAN1 (11760418_a_at) / Fold change /veh RCAN1 (11760418_a_at) / RFU FAM167A (11723789_a_at) / Fold change /veh FAM167A (11723789_a_at) / RFU FAM26E (11764081_at) / Fold change /veh FAM26E (11764081_at) / RFU ISYNA1 (11749810_s_at) / Fold change /veh ISYNA1 (11749810_s_at) / RFU ACY1 (11761880_at) / Fold change /veh ACY1 (11761880_at) / RFU 11764098_at / Fold change /veh 11764098_at / RFU SAMD14 (11745864_x_at) / Fold change /veh SAMD14 (11745864_x_at) / RFU NPB (11741838_a_at) / Fold change /veh NPB (11741838_a_at) / RFU TMPRSS6 (11731388_a_at) / Fold change /veh TMPRSS6 (11731388_a_at) / RFU KRTAP10-2 (11738614_at) / Fold change /veh KRTAP10-2 (11738614_at) / RFU ARHGAP8 /// PRR5-ARHGAP8 (11727945_x_at) / Fold change /veh ARHGAP8 /// PRR5-ARHGAP8 (11727945_x_at) / RFU KRTAP5-7 /// NADSYN1 (11734609_at) / Fold change /veh KRTAP5-7 /// NADSYN1 (11734609_at) / RFU RASL12 (11751679_a_at) / Fold change /veh RASL12 (11751679_a_at) / RFU CDKN2B (11736163_a_at) / Fold change /veh CDKN2B (11736163_a_at) / RFU PRF1 (11729649_at) / Fold change /veh PRF1 (11729649_at) / RFU, ZNF638 /// ZNF638-IT1 / Fold change vs veh, ZNF638 /// ZNF638-IT1 / RFU, PANK3 / Fold change vs veh, PANK3 / RFU, SH3YL1 / Fold change vs veh, SH3YL1 / RFU, ZEB2 / Fold change vs veh, ZEB2 / RFU, NRIP1 / Fold change vs veh, NRIP1 / RFU, PTTG1IP / Fold change vs veh, PTTG1IP / RFU, CAPN2 / Fold change vs veh, CAPN2 / RFU, MED14 / Fold change vs veh, MED14 / RFU, SNORA58 / Fold change vs veh, SNORA58 / RFU, C1orf63 / Fold change vs veh, C1orf63 / RFU, LRRFIP1 / Fold change vs veh, LRRFIP1 / RFU, NDUFAF7 / Fold change vs veh, NDUFAF7 / RFU, SLC12A2 / Fold change vs veh, SLC12A2 / RFU, IBTK / Fold change vs veh, IBTK / RFU, ESF1 / Fold change vs veh, ESF1 / Fold change vs veh, TMEM50B / RFU, TAOK1 / Fold change vs veh, TAOK1 / RFU, ACBD3 / Fold change vs veh, ACBD3 / RFU, TMA16 / Fold change vs veh, TMA16 / RFU, RWDD3 / Fold change vs veh, RWDD3 / RFU, BCAT1 / Fold change vs veh, BCAT1 / RFU, EDEM3 / Fold change vs veh, EDEM3 / RFU, TMEM33 / Fold change vs veh, TMEM33 / RFU, WDR75 / Fold change vs veh, WDR75 / RFU, AHCTF1 / Fold change vs veh, AHCTF1 / RFU, TFRC / Fold change vs veh, TFRC / RFU, ZDHHC17 / Fold change vs veh, ZDHHC17 / RFU, NOM1 / Fold change vs veh, NOM1 / RFU, ARL8B / Fold change vs veh, ARL8B / RFU, ZBTB11 / Fold change vs veh, ZBTB11 / RFU, TAMM41 / Fold change vs veh, TAMM41 / RFU, KIAA1704 /// LOC100996395 / Fold change vs veh, KIAA1704 /// LOC100996395 / RFU, ING1 / Fold change vs veh, ING1 / RFU, TRMT61B / Fold change vs veh, TRMT61B / RFU, FUBP3 / Fold change vs veh, FUBP3 / RFU, TP53 / Fold change vs veh, TP53 / RFU, TNKS2 / Fold change vs veh, TNKS2 / RFU, ZFP14 / Fold change vs veh, ZFP14 / RFU, ACTR2 / Fold change vs veh, ACTR2 / RFU, PPP3R1 / Fold change vs veh, PPP3R1 / RFU, PIK3R1 / Fold change vs veh, PIK3R1 / RFU, HNRNPA1 / Fold change vs veh, HNRNPA1 / RFU, RNF170 / Fold change vs veh, RNF170 / RFU, ZNF28 / Fold change vs veh, ZNF28 / RFU, RNGTT / Fold change vs veh, RNGTT / RFU, OGT / Fold change vs veh, OGT / RFU, BRD1 / Fold change vs veh, BRD1 / RFU, MARS / Fold change vs veh, MARS / RFU, ZNF655 / Fold change vs veh, ZNF655 / RFU, FAHD1 / Fold change vs veh, FAHD1 / RFU, BDP1 / Fold change vs veh, BDP1 / RFU, LRRCC1 / Fold change vs veh, LRRCC1 / RFU, ARID1A / Fold change vs veh, ARID1A / RFU, ZNF146 / Fold change vs veh, ZNF146 / RFU, ZNF330 / Fold change vs veh, ZNF330 / RFU, GPN3 / Fold change vs veh, GPN3 / RFU, C9orf123 / Fold change vs veh, C9orf123 / RFU, N4BP2L2 / Fold change vs veh, N4BP2L2 / RFU, ARFIP1 / Fold change vs veh, ARFIP1 / RFU, FAM179B / Fold change vs veh, FAM179B / RFU, BCL10 / Fold change vs veh, BCL10 / RFU, UHRF1BP1L / Fold change vs veh, UHRF1BP1L / RFU, BET1 / Fold change vs veh, BET1 / RFU, CNOT2 / Fold change vs veh, CNOT2 / RFU, ZNF268 / Fold change vs veh, ZNF268 / Fold change vs veh, ZNF507 / RFU, DGCR2 / Fold change vs veh, DGCR2 / RFU, WDSUB1 / Fold change vs veh, WDSUB1 / Fold change vs veh, HSP90B1 /// MIR3652 / RFU, ADSS / Fold change vs veh, ADSS / RFU, GK / Fold change vs veh, GK / RFU, ZNF148 / Fold change vs veh, ZNF148 / RFU, TAF9 / Fold change vs veh, TAF9 / RFU, SLC1A5 / Fold change vs veh, SLC1A5 / RFU, SLMO2 / Fold change vs veh, SLMO2 / RFU, ABCC4 / Fold change vs veh, ABCC4 / RFU, LOC101060439 /// RAP1B / Fold change vs veh, LOC101060439 /// RAP1B / RFU, RFX7 / Fold change vs veh, RFX7 / RFU, GTPBP10 / Fold change vs veh, GTPBP10 / RFU, CNEP1R1 / Fold change vs veh, CNEP1R1 / RFU, BIVM-ERCC5 /// ERCC5 / Fold change vs veh, BIVM-ERCC5 /// ERCC5 / RFU, ILF3 / Fold change vs veh, ILF3 / RFU 11762660_at / Fold change /veh 11762660_at / RFU VCAN (11757783_s_at) / Fold change /veh VCAN (11757783_s_at) / RFU DDX43 (11728927_at) / Fold change /veh DDX43 (11728927_at) / RFU KRT8 (11758188_x_at) / Fold change /veh KRT8 (11758188_x_at) / RFU NKD1 (11759106_at) / Fold change /veh NKD1 (11759106_at) / RFU SRD5A1 (11742802_a_at) / Fold change /veh SRD5A1 (11742802_a_at) / RFU TPSAB1 /// TPSB2 (11721975_s_at) / Fold change /veh TPSAB1 /// TPSB2 (11721975_s_at) / RFU GSTM3 (11746129_a_at) / Fold change /veh GSTM3 (11746129_a_at) / RFU IL23R (11737362_x_at) / Fold change /veh IL23R (11737362_x_at) / RFU TMEM51 (11727254_a_at) / Fold change /veh TMEM51 (11727254_a_at) / RFU PIWIL2 (11732686_x_at) / Fold change /veh PIWIL2 (11732686_x_at) / RFU ORM1 (11744905_x_at) / Fold change /veh ORM1 (11744905_x_at) / RFU CCDC152 (11743942_at) / Fold change /veh CCDC152 (11743942_at) / RFU ECM1 (11717891_a_at) / Fold change /veh ECM1 (11717891_a_at) / RFU IL23R (11748794_a_at) / Fold change /veh IL23R (11748794_a_at) / RFU TNFAIP8L3 (11732012_x_at) / Fold change /veh TNFAIP8L3 (11732012_x_at) / RFU MBOAT4 (11741988_at) / Fold change /veh MBOAT4 (11741988_at) / RFU 11764193_at / Fold change /veh 11764193_at / RFU TMEM53 (11763286_at) / Fold change /veh TMEM53 (11763286_at) / RFU MAGEB2 (11727129_at) / Fold change /veh MAGEB2 (11727129_at) / RFU TMEM200A (11744735_a_at) / Fold change /veh TMEM200A (11744735_a_at) / RFU CCDC152 (11751479_a_at) / Fold change /veh CCDC152 (11751479_a_at) / RFU FAM211A (11726209_a_at) / Fold change /veh FAM211A (11726209_a_at) / RFU RGS16 (11746705_a_at) / Fold change /veh RGS16 (11746705_a_at) / RFU VCAN (11755009_s_at) / Fold change /veh VCAN (11755009_s_at) / RFU RHOB (11743442_s_at) / Fold change /veh RHOB (11743442_s_at) / RFU RGS16 (11720943_a_at) / Fold change /veh RGS16 (11720943_a_at) / RFU RGS16 (11720944_at) / Fold change /veh RGS16 (11720944_at) / RFU, VPS4B / Fold change vs veh, VPS4B / RFU, CREB1 / Fold change vs veh, CREB1 / RFU, DNAJC13 / Fold change vs veh, DNAJC13 / RFU, GNAQ / Fold change vs veh, GNAQ / RFU, CDK5R1 / Fold change vs veh, CDK5R1 / RFU, ZRANB3 / Fold change vs veh, ZRANB3 / RFU, CUL4A / Fold change vs veh, CUL4A / RFU, CCNY / Fold change vs veh, CCNY / RFU, UFL1 / Fold change vs veh, UFL1 / RFU, COG3 / Fold change vs veh, COG3 / RFU, DIAPH2 / Fold change vs veh, DIAPH2 / RFU, SKA2 / Fold change vs veh, SKA2 / RFU, AFF3 / Fold change vs veh, AFF3 / RFU, LMF1 / Fold change vs veh, LMF1 / RFU, IPO11 / Fold change vs veh, IPO11 / RFU, DFFB / Fold change vs veh, DFFB / RFU, FOXP1 / Fold change vs veh, FOXP1 / RFU, CARD8 / Fold change vs veh, CARD8 / RFU, STRN3 / Fold change vs veh, STRN3 / RFU, ADK / Fold change vs veh, ADK / RFU, RASSF2 / Fold change vs veh, RASSF2 / RFU, WIPF1 / Fold change vs veh, WIPF1 / RFU, LARP1B / Fold change vs veh, LARP1B / RFU, RASA1 / Fold change vs veh, RASA1 / RFU, RB1 / Fold change vs veh, RB1 / RFU, PPFIA1 / Fold change vs veh, PPFIA1 / RFU, MAT2A / Fold change vs veh, MAT2A / RFU, CCT5 / Fold change vs veh, CCT5 / RFU, WDR92 / Fold change vs veh, WDR92 / RFU, CUX1 / Fold change vs veh, CUX1 / RFU, TTC7A / Fold change vs veh, TTC7A / RFU, TMEM135 / Fold change vs veh, TMEM135 / RFU, DEPTOR / Fold change vs veh, DEPTOR / RFU, CPM / Fold change vs veh, CPM / RFU, DNAJB6 / Fold change vs veh, DNAJB6 / RFU, CACNA2D3 / Fold change vs veh, CACNA2D3 / RFU, DTX4 / Fold change vs veh, DTX4 / RFU, TFCP2 / Fold change vs veh, TFCP2 / RFU, GMCL1 /// GMCL1P1 / Fold change vs veh, GMCL1 /// GMCL1P1 / RFU, AEBP2 / Fold change vs veh, AEBP2 / RFU, SNHG1 /// SNORD22 /// SNORD25 /// SNORD26 /// SNORD27 /// SNORD28 /// SNORD29 /// SNORD31 / Fold change vs veh, SNHG1 /// SNORD22 /// SNORD25 /// SNORD26 /// SNORD27 /// SNORD28 /// SNORD29 /// SNORD31 / Fold change (Aza/veh), C12orf56 (ProbeSet 11735607_a_at) / Fold change (ACY-1035/veh), C12orf56 (ProbeSet 11735607_a_at) / Fold change (Aza/veh), FGFR1OP (ProbeSet 11751329_s_at) / Fold change (ACY-1035/veh), FGFR1OP (ProbeSet 11751329_s_at) / Fold change (Aza/veh), VPS36 (ProbeSet 11739960_a_at) / Fold change (ACY-1035/veh), VPS36 (ProbeSet 11739960_a_at) / RFU SYPL1 (11715823_x_at) / Fold change /veh SYPL1 (11715823_x_at) / RFU IGFBP7 (11715501_s_at) / Fold change /veh IGFBP7 (11715501_s_at) / RFU REEP3 (11722064_at) / Fold change /veh REEP3 (11722064_at) / RFU IGLL1 (11728026_x_at) / Fold change /veh IGLL1 (11728026_x_at): dose or concentration left out as unconfirmed. Conditions: ProbeSet 11739696_s_at; LIST D.

`Nc1ncn([C@@H]2O[C@H](CO)[C@@H](O)[C@H]2O)c(=O)n1` [azacitidine]: the “Fold change vs veh, AFF3” value stood at 0.52.
